{
  "source": "patent US10709705B2",
  "about": "“Aminopyrimidines as ALK inhibitors” (THE REGENTS OF THE UNIVERSITY OF MICHIGAN, priority 2016, dated 2020)",
  "key": {"[1]": {"test": "Pharmacokinetics in SD rats", "format": "in vivo", "details": "Table 8 (SD rats); for AUC0-t (ng · h/mL) PO / AUC0-∞ (ng · h/mL) PO / Cmax(ng/mL) PO / Tmax (h) PO / t1/2 (h) PO: PO 10 mg/kg, 10 mg/kg", "procedure": "Routine pharmacokinetics studies were performed for Cpd. No. 5 in SD rats and beagle dogs."}, "ALK L1196M": {"biological_target": "T1, ALK L1196M (Homo sapiens, UniProt Q9UM73, L1196M)", "T1 construct": "made in house; host or cells: SF9 insect cells", "test": "Mutant ALK kinase inhibition, Lance TR-FRET, L1196M", "format": "biochemical", "details": "Table 5; ATP 100 μM", "procedure": "The cytoplasmic domain (amino acid 1058-1620) of wild-type human ALK protein expressed as N-terminal GST-fusion protein was purchased from Carna Biosciences, Inc (Japan). Mutated ALK proteins were expressed in SF9 insect cells with N-terminal tags cleaved after purification. Kinase activities of all enzymes were assessed using a Lance® TR-FRET assay kit from Perkin Elmer Life Sciences (Waltham, Mass.). 2.5 μL of compound solution and 5 μL of protein solution were added into a black low volume 384 well microtiter plate which was incubated for 30 minutes with gentle shaking at room temperature, followed by adding 2.5 μL of fluorescently labeled peptide substrate (ULight™-IRS-1 (Tyr983) Peptide) and ATP mixture solution. The kinase reaction was performed in 50 mM HEPES (pH 7.5) with 1 mM EGTA, 1 mM MgCl2, and 2 mM DTT, 0.01% Tween-20 added right before the assay. Final concentrations of ATP, substrates, and DMSO were 100 μM, 20 nM, and 0.5%, respectively. […] The final mixture was incubated in the dark for 1 hour before the plate was read on a Tecan Infinite M-1000 multi-mode plate reader (Tecan, Durham N.C.) with an excitation wavelength of 320 nm. Emission intensities were measured at both 620 and 665 nm with the intensity ratio between 665 and 620 nm corresponding to the peptide substrate phosphorylation. […]"}, "INSRR": {"biological_target": "T2, INSRR (Homo sapiens, UniProt P14616)", "T2 construct": "purchased LeadHunter Discovery Services (currently DiscoverX Corporation), KINOMEscan screening service", "test": "KINOMEscan kinase panel, INSRR", "format": "binding", "excerpt": "Cpd. No. 5 was screened for its activity against a panel of human kinases using the KINOMEscan™ screening platform from LeadHunter Discovery Services (currently DiscoverX Corporation (Fremont, Calif. 94538, United States). See Table 7."}, "[2]": {"details": "Sprague-Dawley, rat, in vivo, iv, 1 mg/kg, IV 1 mg/kg"}, "[3]": {"details": "listed as Cpd. No. 5 (solution)"}, "[4]": {"details": "listed as Cpd. No. 5 (suspension)"}},
  "data": [
    {"smiles": "Cc1cc(Nc2ncc(Cl)c(Nc3ccccc3S(=O)(=O)C(C)C)n2)c(OC(C)C)cc1C1=CCN(C2CCOCC2)CC1", "note": "[Cpd. No. 5, 5-chloro-N2-(2-isopropoxy-5-methyl-4-(1-(tetrahydro-2H-pyran-4-yl)-1,2,3,6-tetrahydropyridin-4-yl)phenyl)-N4-(2-(isopropylsulfonyl)phenyl)pyrimidine-2,4-diamine]", "values": [
      {"measurement": "Cmax", "setting": "[1]; [2]", "result": 234, "unit": "ng/mL"},
      {"measurement": "Tmax", "setting": "[1]; [2]", "result": 4.98, "unit": "min"},
      {"measurement": "AUC(0-t)", "setting": "[1]; Sprague-Dawley, rat, in vivo, iv, 1 mg/kg, IV 1 mg/kg, read-out: AUC0-t (ng · h/mL) IV", "result": 506, "unit": "ng·h/mL"},
      {"measurement": "AUC(0-inf)", "setting": "[1]; Sprague-Dawley, rat, in vivo, iv, 1 mg/kg, IV 1 mg/kg, read-out: AUC0-∞ (ng · h/mL) IV", "result": 576, "unit": "ng·h/mL"},
      {"measurement": "half-life", "setting": "[1]; Sprague-Dawley, rat, in vivo, iv, 1 mg/kg, IV 1 mg/kg, read-out: t1/2 (h) IV (converted)", "result": 3.94, "unit": "h"},
      {"measurement": "MRT inf", "setting": "[1]; Sprague-Dawley, rat, in vivo, IV 1 mg/kg", "result": 4.54, "unit": "h"},
      {"measurement": "clearance", "setting": "[1]; Sprague-Dawley, rat, in vivo, IV 1 mg/kg, read-out: CL (iv) (converted)", "result": 29.2, "unit": "mL/min/kg"},
      {"measurement": "Vd", "setting": "[1]; Sprague-Dawley, rat, in vivo, IV 1 mg/kg, read-out: Vss (iv)", "result": 7.97, "unit": "L/kg"},
      {"measurement": "F(AUC0-t)", "setting": "[1]; PO 10 mg/kg vs IV 1 mg/kg, solution", "result": 31.1, "unit": "%"},
      {"measurement": "AUC0-t (ng · h/mL) PO", "setting": "[1]; [3]", "result": 1759, "unit": "ng·h/mL"},
      {"measurement": "AUC0-∞ (ng · h/mL) PO", "setting": "[1]; [3]", "result": 1788, "unit": "ng·h/mL"},
      {"measurement": "Cmax(ng/mL) PO", "setting": "[1]; [3]", "result": 153, "unit": "ng/mL"},
      {"measurement": "Tmax (h) PO", "setting": "[1]; [3]", "result": 2.67, "unit": "h"},
      {"measurement": "t1/2 (h) PO", "setting": "[1]; [3]", "result": 3.93, "unit": "h"},
      {"measurement": "AUC0-t (ng · h/mL) PO", "setting": "[1]; [4]", "result": 719, "unit": "ng·h/mL"},
      {"measurement": "AUC0-∞ (ng · h/mL) PO", "setting": "[1]; [4]", "result": 733, "unit": "ng·h/mL"},
      {"measurement": "Cmax(ng/mL) PO", "setting": "[1]; [4]", "result": 75.9, "unit": "ng/mL"},
      {"measurement": "Tmax (h) PO", "setting": "[1]; [4]", "result": 3.67, "unit": "h"},
      {"measurement": "t1/2 (h) PO", "setting": "[1]; [4]", "result": 4.05, "unit": "h"},
      {"measurement": "IC50", "setting": "ALK L1196M", "result": 0.73, "unit": "nM"},
      {"measurement": "Kd", "setting": "INSRR", "result": 32, "unit": "nM"}
    ]}
  ]
}
